The results in this text go back to patent US11771709B2, “ALK protein degradation agent and anti-tumor application thereof” (ShanghaiTech University, priority 2017, dated 2023).

In one experiment the test system is SR (NPM-ALK) cells. Kind of experiment: Growth inhibition IC50 in ALCL SR cells (CCK8/WST, 72 hours). The experiment is classed as cell-based. The following applies: SR cells.
Experiment [1] relates to NCI-H3122 (EML4-ALK, V1) cells. As to the kind of experiment: Growth inhibition IC50 in lung cancer H3122 cells (Cell Titer Blue / Cell Titer Glo). The following applies: for IC50: Homo sapiens, NCI-H3122, H3122 cells.
Description: (§1) SR (NPM-ALK) and NCI-H2228 (EML4-ALK, V3) cells were purchased from ATCC. […] All Cells were cultured in RPMI1640 medium with 10% FBS and Penicillin-Streptomycin in 37° C. incubator with 5% CO2.
(§2) Cells were seeded at specific density in 96 well plates one day before treatment. […] Viable cells were measured via CCK8 reagent and IC50s were calculated via Prism Graphad. Experiments were repeated at least three times.
The target of experiment [2] is T1, ALK protein in H3122 (EML4-ALK) cells (Homo sapiens, UniProt Q9UM73).
T1 construct: EML4 (Echinoderm microtubule-associated protein-like 4, Q9HC35) fusion partner, variant 1; host or cells: NCI-H3122 lung adenocarcinoma cells; the other entry of the earlier key: EML4 (Q9HC35, Echinoderm microtubule-associated protein-like 4)
As to the kind of experiment: Western blot of ALK protein level (degradation, DC50), ALK phosphorylation and downstream signaling in H3122 cells. The following applies: for DC50: ALK protein degradation in H3122 cells. Format: cell-based. On the technique in general: Immunoblotting shows a protein as a band on a membrane.

T1 sequence (Q9UM73 with tags, fused parts or gaps): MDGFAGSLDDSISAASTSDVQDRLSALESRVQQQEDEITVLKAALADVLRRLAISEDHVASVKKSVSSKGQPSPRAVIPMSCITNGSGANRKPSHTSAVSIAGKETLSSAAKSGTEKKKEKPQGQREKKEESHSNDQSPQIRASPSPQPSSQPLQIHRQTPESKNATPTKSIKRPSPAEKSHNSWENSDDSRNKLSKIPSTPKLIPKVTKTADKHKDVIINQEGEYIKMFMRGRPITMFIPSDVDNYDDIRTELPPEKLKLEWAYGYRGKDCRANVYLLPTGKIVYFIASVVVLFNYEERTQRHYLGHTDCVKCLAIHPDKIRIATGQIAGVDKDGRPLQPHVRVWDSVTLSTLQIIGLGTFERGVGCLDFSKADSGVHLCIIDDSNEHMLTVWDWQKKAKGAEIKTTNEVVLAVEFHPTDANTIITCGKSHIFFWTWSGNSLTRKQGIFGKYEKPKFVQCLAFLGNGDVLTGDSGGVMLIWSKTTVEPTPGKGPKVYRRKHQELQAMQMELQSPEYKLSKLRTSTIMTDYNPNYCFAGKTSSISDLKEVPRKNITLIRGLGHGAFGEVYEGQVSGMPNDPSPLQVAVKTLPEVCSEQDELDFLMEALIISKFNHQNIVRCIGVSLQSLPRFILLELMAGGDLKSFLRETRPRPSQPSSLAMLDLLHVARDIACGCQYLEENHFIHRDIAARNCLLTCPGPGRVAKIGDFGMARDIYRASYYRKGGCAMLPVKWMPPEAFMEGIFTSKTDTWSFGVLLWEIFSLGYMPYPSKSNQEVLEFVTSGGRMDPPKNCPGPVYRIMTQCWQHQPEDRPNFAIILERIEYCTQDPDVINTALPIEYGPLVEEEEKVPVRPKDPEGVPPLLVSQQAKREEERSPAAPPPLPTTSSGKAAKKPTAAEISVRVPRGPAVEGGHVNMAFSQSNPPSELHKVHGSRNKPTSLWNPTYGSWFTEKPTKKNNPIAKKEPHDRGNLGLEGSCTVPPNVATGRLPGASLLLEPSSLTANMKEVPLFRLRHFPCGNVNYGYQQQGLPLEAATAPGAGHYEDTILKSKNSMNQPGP
Description for SR (NPM-ALK) cells: as §1, §2

What is called IC50 is the concentration that gives 50% inhibition. The low end stands for higher potency, the high end for lower potency. In the case of `Cc1cc(Nc2ncc(Cl)c(Nc3ccccc3S(=O)(=O)C(C)C)n2)c(OC(C)C)cc1C1CCN(C(=O)CCCCCCC(=O)N[C@H](C(=O)N2C[C@H](O)C[C@H]2C(=O)NCc2ccc(-c3scnc3C)cc2)C(C)(C)C)CC1` [SIAIS074008, (2S,4R)-1-((S)-2-(8-(4-(4-((5-chloro-4-((2-(isopropylsulfonyl)phenyl)amino)pyrimidin-2-yl)amino)-5-isopropoxy-2-methylphenyl)piperidin-1-yl)-8-oxooctanamido)-3,3-dimethylbutanoyl)-4-hydroxy-N-(4-(4-methylthiazol-5-yl)benzyl)pyrrolidine-2-carboxamide], the growth inhibition effect result (in the experiment with SR (NPM-ALK) cells; in experiment [1] (H3122 cells)) was “IC50 at the nano mole range” throughout. This compound also returned a 50% inhibitory concentration (IC50) in experiment [1] (CTB (Cell Titer Blue)) of 428 nM.
What is called DC50 is the midpoint of the concentration-degradation curve. `Cc1cc(Nc2ncc(Cl)c(Nc3ccccc3S(=O)(=O)C(C)C)n2)c(OC(C)C)cc1C1CCN(C(=O)CCCC(=O)N[C@H](C(=O)N2C[C@H](O)C[C@H]2C(=O)NCc2ccc(-c3scnc3C)cc2)C(C)(C)C)CC1` [SIAIS074018, (2S,4R)-1-((S)-2-(5-(4-(4-((5-chloro-4-((2-(isopropylsulfonyl)phenyl)amino)pyrimidin-2-yl)amino)-5-isopropoxy-2-methylphenyl)piperidin-1-yl)-5-oxopentanamido)-3,3-dimethylbutanoyl)-4-hydroxy-N-(4-(4-methylthiazol-5-yl)benzyl)pyrrolidine-2-carboxamide] registered a DC50 in experiment [2] of 100 to 500 nM. This compound also showed an IC50 in experiment [1] (CTB (Cell Titer Blue)) of 209 nM.
For the compound `Cc1cc(Nc2ncc(Cl)c(Nc3ccccc3S(=O)(=O)C(C)C)n2)c(OC(C)C)cc1C1CCN(C(=O)CCCCC(=O)N[C@H](C(=O)N2C[C@H](O)C[C@H]2C(=O)NCc2ccc(-c3scnc3C)cc2)C(C)(C)C)CC1` [SIAIS074021, (2S,4R)-1-((S)-2-(6-(4-(4-((5-chloro-4-((2-(isopropylsulfonyl)phenyl)amino)pyrimidin-2-yl)amino)-5-isopropoxy-2-methylphenyl)piperidin-1-yl)-6-oxohexanamido)-3,3-dimethylbutanoyl)-4-hydroxy-N-(4-(4-methylthiazol-5-yl)benzyl)pyrrolidine-2-carboxamide], in experiment [2], the half-maximal degradation concentration (DC50) was 50 to 100 nM. Moreover, the IC50 in experiment [1] (CTB (Cell Titer Blue)) was 125 nM.
In the same order, the values of `Cc1cc(Nc2ncc(Cl)c(Nc3ccccc3S(=O)(=O)C(C)C)n2)c(OC(C)C)cc1C1CCN(C(=O)CCCCCC(=O)N[C@H](C(=O)N2C[C@H](O)C[C@H]2C(=O)NCc2ccc(-c3scnc3C)cc2)C(C)(C)C)CC1` [SIAIS074022, (2S,4R)-1-((S)-2-(7-(4-(4-((5-chloro-4-((2-(isopropylsulfonyl)phenyl)amino)pyrimidin-2-yl)amino)-5-isopropoxy-2-methylphenyl)piperidin-1-yl)-7-oxoheptanamido)-3,3-dimethylbutanoyl)-4-hydroxy-N-(4-(4-methylthiazol-5-yl)benzyl)pyrrolidine-2-carboxamide] are 20 to 100 nM and 269 nM.
Take `Cc1cc(Nc2ncc(Cl)c(Nc3ccccc3S(=O)(=O)C(C)C)n2)c(OC(C)C)cc1C1CCN(C(=O)CCCCCCCC(=O)N[C@H](C(=O)N2C[C@H](O)C[C@H]2C(=O)NCc2ccc(-c3scnc3C)cc2)C(C)(C)C)CC1` [SIAIS074024, (2S,4R)-1-((S)-2-(9-(4-(4-((5-chloro-4-((2-(isopropylsulfonyl)phenyl)amino)pyrimidin-2-yl)amino)-5-isopropoxy-2-methylphenyl)piperidin-1-yl)-9-oxononanamido)-3,3-dimethylbutanoyl)-4-hydroxy-N-(4-(4-methylthiazol-5-yl)benzyl)pyrrolidine-2-carboxamide]: the DC50 in experiment [2] was 10 to 50 nM. In experiment [2] (H3122 cells, western blot), the “concentration at which ALK protein level was reduced” value is 50 nM. Moreover, the concentration for half-maximal inhibition (IC50) in experiment [1] (CTB (Cell Titer Blue)) came to 721 nM.
With `Cc1cc(Nc2ncc(Cl)c(Nc3ccccc3S(=O)(=O)C(C)C)n2)c(OC(C)C)cc1C1CCN(C(=O)CCCCCCCCC(=O)N[C@H](C(=O)N2C[C@H](O)C[C@H]2C(=O)NCc2ccc(-c3scnc3C)cc2)C(C)(C)C)CC1` [SIAIS074025, (2S,4R)-1-((S)-2-(10-(4-(4-((5-chloro-4-((2-(isopropylsulfonyl)phenyl)amino)pyrimidin-2-yl)amino)-5-isopropoxy-2-methylphenyl)piperidin-1-yl)-10-oxodecanamido)-3,3-dimethylbutanoyl)-4-hydroxy-N-(4-(4-methylthiazol-5-yl)benzyl)pyrrolidine-2-carboxamide], the DC50 in experiment [2] fell in the range of 100 to 500 nM. In addition, the concentration for half-maximal inhibition (IC50) in experiment [1] (CTB (Cell Titer Blue)) is 1240 nM.
In the case of `Cc1cc(Nc2ncc(Cl)c(Nc3ccccc3S(=O)(=O)C(C)C)n2)c(OC(C)C)cc1C1CCN(C(=O)CCOCCOCCNc2cccc3c2C(=O)N(C2CCC(=O)NC2=O)C3=O)CC1` (stereo not drawn) [SIAIS151023, 4-((2-(2-(3-(4-(4-((5-chloro-4-((2-(isopropylsulfonyl)phenyl)amino)pyrimidin-2-yl)amino)-5-isopropoxy-2-methylphenyl)piperidin-1-yl)-3-oxopropoxy)ethoxy)ethyl)amino)-2-(2,6-dioxopiperidin-3-yl)isoindoline-1,3-dione], in experiment [2], the half-maximal degradation concentration (DC50) fell in the range of 10 to 100 nM. Moreover, the IC50 in experiment [1] (CTB (Cell Titer Blue)) was determined as 15 nM; in experiment [1] (CTG (Cell Titer Glo)) it was 76 nM.
The compound `Cc1cc(Nc2ncc(Cl)c(Nc3ccccc3S(=O)(=O)C(C)C)n2)c(OC(C)C)cc1C1CCN(C(=O)CCCCNc2cccc3c2C(=O)N(C2CCC(=O)NC2=O)C3=O)CC1` (stereo not drawn) [SIAIS151036, 4-((5-(4-(4-((5-chloro-4-((2-(isopropylsulfonyl)phenyl)amino)pyrimidin-2-yl)amino)-5-isopropoxy-2-methylphenyl)piperidin-1-yl)-5-oxopentyl)amino)-2-(2,6-dioxopiperidin-3-yl)isoindoline-1,3-dione] came in with an IC50 in experiment [1] (CTB (Cell Titer Blue)) of 31 nM.
Still for that read-out and setting: the figure for `Cc1cc(Nc2ncc(Cl)c(Nc3ccccc3S(=O)(=O)C(C)C)n2)c(OC(C)C)cc1C1CCN(C(=O)CCOCCOCCC(=O)N[C@H](C(=O)N2C[C@H](O)C[C@H]2C(=O)NCc2ccc(-c3scnc3C)cc2)C(C)(C)C)CC1` [SIAIS151038, (2S,4R)-1-((S)-2-(3-(2-(3-(4-(4-((5-chloro-4-((2-(isopropylsulfonyl)phenyl)amino)pyrimidin-2-yl)amino)-5-isopropoxy-2-methylphenyl)piperidin-1-yl)-3-oxopropoxy)ethoxy)propanamido)-3,3-dimethylbutanoyl)-4-hydroxy-N-(4-(4-methylthiazol-5-yl)benzyl)pyrrolidine-2-carboxamide] is 393 nM; for `Cc1cc(Nc2ncc(Cl)c(Nc3ccccc3S(=O)(=O)C(C)C)n2)c(OC(C)C)cc1C1CCN(C(=O)CCOCCOCCOCCC(=O)N[C@H](C(=O)N2C[C@H](O)C[C@H]2C(=O)NCc2ccc(-c3scnc3C)cc2)C(C)(C)C)CC1` [SIAIS151039, (2S,4R)-1-((S)-2-(tert-butyl)-16-(4-(4-((5-chloro-4-((2-(isopropylsulfonyl)phenyl)amino)pyrimidin-2-yl)amino)-5-isopropoxy-2-methylphenyl)piperidin-1-yl)-4,16-dioxo-7,10,13-trioxa-3-azahexadecanoyl)-4-hydroxy-N-(4-(4-methylthiazol-5-yl)benzyl)pyrrolidine-2-carboxamide] it is 441 nM.
Same read-out and setting: the figure for `Cc1cc(Nc2ncc(Cl)c(Nc3ccccc3S(=O)(=O)C(C)C)n2)c(OC(C)C)cc1C1CCN(C(=O)CCOCCOCCOCCOCCC(=O)N[C@H](C(=O)N2C[C@H](O)C[C@H]2C(=O)NCc2ccc(-c3scnc3C)cc2)C(C)(C)C)CC1` [SIAIS151040, (2S,4R)-1-((S)-2-(tert-butyl)-19-(4-(4-((5-chloro-4-((2-(isopropylsulfonyl)phenyl)amino)pyrimidin-2-yl)amino)-5-isopropoxy-2-methylphenyl)piperidin-1-yl)-4,19-dioxo-7,10,13,16-tetraoxa-3-azanonadecanoyl)-4-hydroxy-N-(4-(4-methylthiazol-5-yl)benzyl)pyrrolidine-2-carboxamide] is 141 nM; for `Cc1cc(Nc2ncc(Cl)c(Nc3ccccc3S(=O)(=O)C(C)C)n2)c(OC(C)C)cc1C1CCN(C(=O)CCOCCOCCOCCOCCOCCC(=O)N[C@H](C(=O)N2C[C@H](O)C[C@H]2C(=O)NCc2ccc(-c3scnc3C)cc2)C(C)(C)C)CC1` [SIAIS151041, (2S,4R)-1-((S)-2-(tert-butyl)-22-(4-(4-((5-chloro-4-((2-(isopropylsulfonyl)phenyl)amino)pyrimidin-2-yl)amino)-5-isopropoxy-2-methylphenyl)piperidin-1-yl)-4,22-dioxo-7,10,13,16,19-pentaoxa-3-azadocosanoyl)-4-hydroxy-N-(4-(4-methylthiazol-5-yl)benzyl)pyrrolidine-2-carboxamide] it is 332 nM; for `Cc1cc(Nc2ncc(Cl)c(Nc3ccccc3S(=O)(=O)C(C)C)n2)c(OC(C)C)cc1C1CCN(C(=O)COCCOCC(=O)N[C@H](C(=O)N2C[C@H](O)C[C@H]2C(=O)NCc2ccc(-c3scnc3C)cc2)C(C)(C)C)CC1` [SIAIS151042, (2S,4R)-1-((S)-2-(2-(2-(2-(4-(4-((5-chloro-4-((2-(isopropylsulfonyl)phenyl)amino)pyrimidin-2-yl)amino)-5-isopropoxy-2-methylphenyl)piperidin-1-yl)-2-oxoethoxy)ethoxy)acetamido)-3,3-dimethylbutanoyl)-4-hydroxy-N-(4-(4-methylthiazol-5-yl)benzyl)pyrrolidine-2-carboxamide] it is 153 nM.
On the same count and under the same terms, in the case of `Cc1cc(Nc2ncc(Cl)c(Nc3ccccc3S(=O)(=O)C(C)C)n2)c(OC(C)C)cc1C1CCN(C(=O)CCCCCNc2cccc3c2C(=O)N(C2CCC(=O)NC2=O)C3=O)CC1` (stereo not drawn) [SIAIS151043, 4-((6-(4-(4-((5-chloro-4-((2-(isopropylsulfonyl)phenyl)amino)pyrimidin-2-yl)amino)-5-isopropoxy-2-methylphenyl)piperidin-1-yl)-6-oxohexyl)amino)-2-(2,6-dioxopiperidin-3-yl)isoindoline-1,3-dione] it was 156 nM.
